pIC50: −log10 of the molar value. A value given as a limit tells only on which side of the number the result lay.

The target of the experiment is Macrophage colony-stimulating factor 1 receptor (Homo sapiens, UniProt P07333). Nature of the experiment: Inhibition of human CSF1R tyrosine kinase domain (538 to 972 residues) using Poly(Glu, Tyr)-biotinylated peptide as substrate preincubated for 5 mins followed by substrate addition and measured after 10 mins by HTRF assay.
Chain of Macrophage colony-stimulating factor 1 receptor (P07333 whole entry, the tested form may be a part): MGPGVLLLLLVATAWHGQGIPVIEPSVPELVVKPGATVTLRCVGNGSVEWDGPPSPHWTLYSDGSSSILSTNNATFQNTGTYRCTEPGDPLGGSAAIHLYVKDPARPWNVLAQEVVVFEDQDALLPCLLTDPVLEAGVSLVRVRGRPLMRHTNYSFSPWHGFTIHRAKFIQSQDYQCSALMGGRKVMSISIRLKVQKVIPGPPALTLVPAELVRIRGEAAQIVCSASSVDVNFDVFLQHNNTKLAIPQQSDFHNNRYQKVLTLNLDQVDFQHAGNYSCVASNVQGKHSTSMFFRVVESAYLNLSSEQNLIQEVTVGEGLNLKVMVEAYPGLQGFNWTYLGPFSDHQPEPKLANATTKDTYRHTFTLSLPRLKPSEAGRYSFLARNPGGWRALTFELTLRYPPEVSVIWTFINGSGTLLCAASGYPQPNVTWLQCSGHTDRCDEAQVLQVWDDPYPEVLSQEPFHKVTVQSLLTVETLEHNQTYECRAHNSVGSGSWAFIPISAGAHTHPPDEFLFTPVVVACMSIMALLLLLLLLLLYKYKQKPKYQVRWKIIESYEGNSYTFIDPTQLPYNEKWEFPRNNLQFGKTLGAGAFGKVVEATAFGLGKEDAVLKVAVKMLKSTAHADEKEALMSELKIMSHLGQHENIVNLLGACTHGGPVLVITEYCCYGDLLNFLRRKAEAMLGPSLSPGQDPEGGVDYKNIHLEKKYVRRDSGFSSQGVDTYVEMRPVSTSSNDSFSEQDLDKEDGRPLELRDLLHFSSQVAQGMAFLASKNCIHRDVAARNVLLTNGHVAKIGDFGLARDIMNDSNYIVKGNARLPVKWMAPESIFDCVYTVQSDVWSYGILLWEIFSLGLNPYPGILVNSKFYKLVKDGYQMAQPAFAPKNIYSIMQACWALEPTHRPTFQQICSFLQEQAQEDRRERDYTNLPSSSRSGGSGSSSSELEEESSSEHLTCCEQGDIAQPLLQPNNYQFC
As to `CCc1ccc(COc2ccc(C3CN(Cc4ccccn4)C3)cc2OC)cc1`, the pIC50 was less than 5.52. With `CCc1ccc(COc2ccc(C3CN(Cc4cccnc4)C3)cc2OC)cc1` the figure was less than 5.52; with `CCc1ccc(COc2ccc(C3CN(c4ccccn4)C3)cc2OC)cc1`, less than 5.52.

The record behind these values is ChEMBL document CHEMBL4308862, “Discovery of a novel azetidine scaffold for colony stimulating factor-1 receptor (CSF-1R) Type II inhibitors by the use of docking models” (Bioorg Med Chem Lett, 2019).
